Results taken from patent US6368624B1, “Tableted product prepared by vacuum freeze-drying of a plant belonging to genus aloe of family Liliaceae and the method for producing same” (Yurika Incorporated, priority 1990, dated 2002).

Test system: human O-type erythrocytes
Assay: Erythrocyte agglutination, microtiter method
Type: cell-based
Settings: at a concentration of 1 mg/ml
Method: The inventive tablet and the control tablet obtained by drying under hot air circulation, were crushed into powders. 1.0 g each of the powders was dissolved in 10 ml of distilled water. After stirring, each of the resulting solutions was centrifuged at 4° C. for 30 minutes at 12,000 rpm.
The erythrocyte agglutination activity of each of the produced supernatants was examined in accordance with the microtiter method.
A buffer solution obtained by mixing phosphoric acid with physiological saline to pH 7.4 was added to 100 μl each of the supernatarits for two-stage dilution until 128-fold dilution was reached. To each diluted solution, 100 μof the 1% human O-type erythrocytes were added, and reaction was carried out at 37° C. for one hour to observe the progress of agglutination.

For Concanavalin A, the Agglutination titer was 32 titer.
